By EC50 is commonly meant the midpoint of the concentration-response curve.

Experimental findings from patent publication US7037913B2, “Bicyclo 4.4.0 antiviral derivatives” (priority 2002, dated 2006) are described below.

Bounds are passed on as bounds.

The assay has as its system HIV-1 single-round infectious reporter virus. Nature of the assay: Single-round infectious HIV-1 luciferase reporter virus infection of HeLa CD4 CCR5 cells. The settings on record: Human immunodeficiency virus 1, HeLa-CD4/CCR5, 72 h, read-out: Group (EC50). The format is cell-based. From the text: The materials and experimental procedures used to obtain the results for representative compounds of Formula I reported in Tables 7–9 are described below.
• Virus production—Human embryonic Kidney cell line, 293, propagated in Dulbecco's Modified Eagle Medium (Life Technologies, Gaithersburg, Md.) containing 10% fetal Bovine serum (FBS, Sigma, St. Louis, Mo.). • Virus infection—Human epithelial cell line, HeLa, expressing the HIV-1 receptors CD4 and CCR5 was propagated in Dulbecco's Modified Eagle Medium (Life Technologies, Gaithersburg, Md.) containing 10% fetal Bovine serum (FBS, Sigma, St. Louis, Mo.) and supplemented with 0.2 mg/ml Geneticin (Life Technologies, Gaithersburg, Md.) and 0.4 mg/ml Zeocin (Invitrogen, Carlsbad, Calif.). • Virus—Single-round infectious reporter virus was produced by co-transfecting human embryonic Kidney 293 cells with an HIV-1 envelope DNA expression vector and a proviral cDNA containing an envelope deletion mutation and the luciferase reporter gene inserted in place of HIV-1 nef sequences (Chen et al, Ref. 41). […] Viral infection was monitored by measuring luciferase expression from viral DNA in the infected cells using a luciferase reporter gene assay kit (Roche Molecular Biochemicals, Indianapolis, Ind.). […] Luciferase activity was then quantified by measuring luminescence using a Wallac microbeta scintillation counter. • 5. […]
On the technique in general: Reporter assays use an easily measured gene product as a stand-in for the process of interest.

As to `C[C@@H]1CN(C(=O)c2ccccc2)CCN1C(=O)C(F)(F)c1ccc2ccccc2c1` [Example 54], the concentration for a half-maximal effect (EC50) was under 1000 nM.

Take `C[C@@H]1CN(C(=O)c2ccccc2)CCN1C(=O)C1(c2ccc3ccccc3c2)CC1` [Example 55]: the EC50 was under 1000 nM.
